Patent publication US8106004B2, “Methods of inhibiting tumor cell aggressiveness using the microenvironment of human embryonic stem cells” (Children's Memorial Hospital, priority 2006, dated 2012)

Columns and labels:
[1] = tested on: C8161 melanoma cells; test: In vivo tumor cell proliferation-to-apoptosis ratio (Ki67/TUNEL), C8161 derived tumors; settings: C8161 treated before injection into mouse
Excerpt: (§1) (A) In vivo tumor formation in a mouse injected with MDA-MB-231 cells pre-exposed for 3 days to either a control matrix (Matrigel) or a matrix conditioned by hESCs (H9 CMTX) (n=10) (B) C81-61 cells, transfected with either an empty vector or a Nodal expression construct (n=5), and (C) MDA-MB-231 cells treated with either MO^Control or MO^Nodal (n=10). […] (D) The ratio of tumor cell proliferation to apoptosis for C8161 and MDA-MB-231 derived tumors, determined by immunohistochemical staining for Ki67 and terminal deoxynucleotidyl transferase biotin-dUTP nick-end labeling (TUNEL). Prior to injection into a mouse, C8161 and MDA-MB-231 cells were cultured for 3 days on control or hESC conditioned (H9 CMTX) matrices, or treated with MO^Nodal to knock down Nodal expression. […] (E) Immunohistochemical analysis of Ki67 expression (red/brown) and TUNEL staining in orthotopic melanoma (C8161) and breast carcinoma (MDA-MB-231) tumors. […] Proliferation is indicated by Ki67 staining and apoptotic nuclei were detected with confocal microscopy as red staining localized to the nuclei of apoptotic C8161 or MDA-MB-231 cells. […]
(§2) In order to establish a mechanism by which exposure to the hESC microenvironment abrogates tumorigenicity, the effects of this treatment on the in vivo tumor cell proliferation-to-apoptosis ratio were analyzed. […]

[2] = tested on: Nodal; test: Immunohistochemical analysis of Nodal staining in orthotopic C8161 tumors; assay type: in vivo, mouse; settings: tumors from C8161 treated with anti-Nodal Morpholino, day 17
[3] = tested on: MDA-MB-231 breast carcinoma cells; test: In vivo tumor cell proliferation-to-apoptosis ratio (Ki67/TUNEL), MDA-MB-231 derived tumors; settings: MDA-MB-231 treated before injection into mouse
Excerpt: as §1, §2

[4] = tested on: C8161 cells; test: Soft agar / anchorage independent growth assay, C8161 cells; assay type: cell-based, human; settings: C8161 treated with anti-Nodal Morpholino
Protocol: An in vitro colony forming assay was used to analyze colony-forming ability of poorly aggressive C81-61 cells, aggressive C8161 cells, C8161 cells treated with MO^Nodal and C8161 cells treated with MO^Nodal and rescued with recombinant Nodal (100 ng/mL). The assay was conducted using 50,000 cells suspended in 0.35% agarose in RPMI containing 10% serum, which were plated into 6-well dishes on 0.5% agar in the same medium. Colonies grew, and pictures were taken at day 7. After 2 weeks, colonies were stained with Crystal Violet and counted.
The derivation and phenotypic characteristics of the human melanoma cell lines have been previously described. Seftor, et. al., 2002, Clin. Experim. Metastas. 19:233-246; Seftor, et. al., 2005 Cancer Res. 65:10164-10169. The melanoma cell lines are maintained in RPMI 1640 medium (Invitrogen) supplemented with 10% fetal bovine serum (FBS, Gemini Bioproducts) and 0.1% gentamycin sulfate with the exception of C81-61 cells which are maintained in Ham's FIO medium supplemented with 15% FBS, 1X Mito+ (BD Bioscience) and gentamycin sulfate. Normal human melanocytes are purchased (Cascade Biologics) or isolated from neonatal foreskins. Seftor, et. al., 2005. A single cell suspension is prepared, added to plastic flasks for the adherence of melanocytes and the cells propagated in Medium 254 with Human Melanocyte Growth Supplement (Cascade Biologics) including, 100 units/ml penicillin, 100 μg/ml streptomycin, and 250 ng/mL amphotericin B. The human embryonic stem cell lines are cultured as previously described. Thomson, et. al., 1998, Science 282:1145-1147. Briefly, cells are grown in 6-well plates precoated with 0.1% porcine gelatin and containing 1.9×10^5 irradiated mouse embryonic fibroblasts (strain CF-1; ATCC) per well. The cells are maintained in medium containing DMEM/F12 (1:1), 20% knock-out serum replacement, non-essential minimal amino acids, L-glutamine (Invitrogen), […], and 4 ng/ml FGF-2 (R&D Systems), and are split with collagenase (1 mg/ml) before the colonies begin to overlap. The cultures are determined to be free of mycoplasma contamination using a PCR-based assay (Roche). The normal human neonatal epidermal melanocytes (HEMn-LP; Cascade Biologics, Portland Oreg.), myoepithelial cells (Hs 578 Bst; American Type Culture Collection (ATCC), Manassas, Va.) and primary mammary epithelial cells (HMEpC; Cell Applications Inc., San Diego Calif.) were maintained as per distributor instructions. Live umbilical cord blood stem cells (SC00125; New Jersey Stem Cell Resource at Coriell Institute for Medical Research) amniotic fluid derived stem cells (GM00473, GM00957A) and adult bone marrow derived mesenchymal stem cells (Stem Cell Technologies, Vancouver BC, Canada) were maintained under the recommended conditions. The HTR-8/SVneo is a well characterized immortalized human extravillous cytotrophoblast cell line, and was maintained as previously described Graham et al., 1993, Exp. Cell Res. 206:204-211. […] The expression vector for wild type Nodal was kindly provided by Dr. Daniel Constam (Swiss Institute for Experimental Cancer Research (ISREC), Epalinges, Switzerland) and was transfected into C81-61 cells as previously described. Le Good et al., 2005, Curr. Biol. 15:31-36. […]

Substance: MO^Nodal: FITC-conjugated anti-sense Morpholino to Nodal, 5′-AAGCAGCACCTCCAGCCCTTATATC-3′ [SEQ ID NO: 20] (all phosphorodiamidate morpholino (PMO); FITC conjugated, position not given here)
- ratio of proliferation to apoptosis [1]: decreased
- Nodal expression in tumors (IHC) [2]: started to regain Nodal expression
- ratio of proliferation to apoptosis [3]: decreased
- reduction of colony formation ([4]; after 2 weeks, n=16, p<0.001): 57%
- ability to undergo anchorage-independent growth ([4]; soft agar): significantly diminished
